Ends that are not written are not given here.
Key:
[1] = test system: anti-ribosomal P protein antibodies (IgG) in serum samples; assay: Antibody detection by covalent ELISA (peptide covalently linked to plate); type: binding, human; details: for healthy donor positive sera (%): 6 healthy donor sera diluted 1:100; for SLE positive sera (%): 8 SLE sera diluted 1:100; for SLE positive sera (positive/tested): SLE sera diluted 1:100; for healthy donor positive sera (positive/tested): healthy donor sera diluted 1:100
Procedure: A peptide, prepared as described in example 1, was covalently linked to a 96-wells microtitre plate (carboxy or amine binding plate) using sulfo-N-hydroxysuccinimide and 1-ethyl-3-(3-dimethylaminopropyl)carbodiimide. Peptide coupling took place for 2 h at r.t. The plate was blocked for 1 h with 5% FBS in PBS or with 0.5 M Gly (pH 8). The patients serum samples were diluted 1:100 in FBS buffer and were then loaded onto the plate for 1.5 h at r.t. After plate washings, an anti human-IgG antibody conjugated to the enzyme alkaline phosphatase was added and incubated for 1.5 h at r.t. After washings, the alkaline phosphate substrate p-nitrophenyl phosphate was added to the wells. After the quenching of the enzymatic reaction with 1 M NaOH, the absorbance was evaluated at a wavelength of 405 nm.

[2] = test system: anti-ribosomal P protein antibodies (IgG) in serum samples; assay: Antibody detection by ELISA (peptide adsorbed onto microtitre plate); type: binding, human
Procedure: A peptide, prepared as described in example 1 and diluted in 0.05 M carbonate buffer (pH 9.6) or in PBS buffer (pH 7.4) was adsorbed onto 96-wells microtitre plates for 4 h at r.t. The wells were treated for 1 h at r.t. with FBS (FBS 5% in PBS). The patients serum samples (diluted 1:100) were then loaded onto the plate and allowed to react overnight at +4° C. After plate washing, an anti human-IgG antibody conjugated to the enzyme alkaline phosphatase was added and incubated for 3 h at r.t. After washings, the alkaline phosphate substrate p-nitrophenyl phosphate was added to the wells. After the quenching of the enzymatic reaction with 1 M NaOH, the absorbance was evaluated at a wavelength of 405 nm.
In total, 25 serum samples of patients suffering from SLE and 68 serum of healthy blood donors were tested by this method.

[3] = test system: SLE specific auto-antibodies in patients sera; details: literature; cited from earlier work

| Substance | healthy donor positive sera (%) [1] [%] | SLE positive sera (%) [1] [%] | SLE positive sera (positive/tested) [1] | healthy donor positive sera (positive/tested) [1] | SLE positive sera (%) ([2]; 25 SLE sera, diluted 1:100, adsorbed peptide) | healthy donor positive sera (%) ([2]; 68 healthy blood donor sera, diluted 1:100, adsorbed peptide) | number of SLE sera negative to peptide 9 in which anti ribosomal antibodies were detected ([2]; SLE serum negative to peptide 9) | number of peptide 9-positive SLE sera showing cross-reactivity with peptide 1 ([2]; among the SLE sera positive to peptide 9) | healthy donor positive sera (positive/tested) ([2]; sera of healthy blood donors, diluted 1:100, adsorbed peptide) | SLE positive sera (positive/tested) ([2]; sera of patients suffering from SLE, diluted 1:100, adsorbed peptide, absorbance 405 nm) | patients sera in which SLE specific auto-antibodies are detected [3] |
| --- | --- | --- | --- | --- | --- | --- | --- | --- | --- | --- | --- |
| GVNVEPFWPGL [Peptide 3] | 0 | 12 | 1/8 | 0/6 |  |  |  |  |  |  |  |
| LIKAAGVNVE [Peptide 2] | 0 | 37 | 3/8 | 0/6 |  |  |  |  |  |  |  |
| LIKAAGVNVEPFWPGLFAKA [Peptide 1, linear peptide derived from the N-terminal region of human ribosomal P1 protein] | 0 | 50 | 4/8 | 0/6 | 32 | 1 | 3 | 4 | 1/68 | 8/25 |  |
| NH2-Lys-Lys-Glu-Glu-Lys-Lys-Glu-Glu-Ser-Glu-Glu-Glu-Asp-Glu-Asp-Met-Gly-Phe-Gly-Leu-Phe-Asp-COOH (H-KKEEKKEESEEEDEDMGFGLFD-OH) [Peptide C-22, peptide comprising the last 22 amino acids of ribosomal P proteins] |  |  |  |  |  |  |  |  |  |  | 10-20% |
| PFWPGLFAKA [Peptide 4] | 0 | 12 | 1/8 | 0/6 |  |  |  |  |  |  |  |
